Key:
[1] = system: U87-MG GBM on PCS-201 fibroblast co-cultures; assay: 5-ALA uptake (PpIX fluorescence) in glioblastoma-fibroblast co-culture under TTFields; format: cell-based, human
U87-MG cells [2] = assay: 5-ALA uptake (PpIX fluorescence) under TTFields, single culture; format: cell-based, human
Method: Experiments were performed to determine the effects of TTFields on uptake of 5-ALA (as measured by PpIX accumulation and its resultant fluorescence) in glioblastoma cells. Because it is difficult to distinguish the margin between tumor and normal cells using the present 5-ALA bioassay, the measurement of PpIX fluorescence was used to address this issue. Investigations were run to determine whether permeation of 5-ALA through the cellular membrane and into the glioblastoma cells could be increased with TTFields exposure. U87-MG cells were exposed or unexposed to TTFields, each for durations of 6-24 h.
All monovariant statistical comparisons between no TTFields vs. TTFields samples done by Student's t-test for n=3 experiments per time point.

U87-MG cells [3] = assay: 7-AAD accumulation by flow cytometry under alternating electric fields; format: cell-based, human; conditions: 300 kHz, 1.62 V/cm RMS, 24 h; 7-AAD introduced 15 minutes prior to cessation of the field (other timings after cessation: no significant increase)
Method: FIG. 7D depicts the results of an experiment to test how quickly the permeability drops back down after cessation of the alternating electric fields. More specifically, 7-Aminoactinomycin D (7-AAD) is a fluorescent chemical compound with a strong affinity for DNA. […] 7-AAD was introduced into samples at five different times: 15 minutes prior to the cessation of the alternating electric field; immediately after cessation of the alternating electric field; and 15, 30, and 60 minutes after cessation of the alternating electric field. In each case, the cells were incubated with 7-AAD for 30 minutes after introduction of the 7-AAD, followed by flow cytometry analysis of the percentage of cells with increased accumulation of the fluorescent 7-AAD for each of the different timings.
After this 15 minute period, alternating electric field application was terminated and the cells were incubated at room temperature for an additional 15 minutes, followed by flow cytometry analysis of the percentage of cells with increased accumulation of the fluorescent 7-AAD for each of the different frequencies.

[4] = system: MDA-MB-435 human melanoma cell line cells; assay: as above; format: cell-based; conditions: 150 kHz, 1.62 V/cm, 24 h
Method: After this 15 minute period, alternating electric field application was terminated and the cells were incubated at room temperature for an additional 15 minutes.
After this 24 hour period, the alternating electric fields were turned off for 15 minutes, after which the 7-AAD was added. After waiting an additional 15 minutes, the percentage of cells with increased accumulation of the fluorescent 7-AAD was determined using flow cytometry.

U87-MG/eGFP-fLuc cells [5] = system: U87-MG/eGFP-fLuc cells
Method: U87-MG/eGFP-fLuc cells were seeded on Thermanox glass coverslips, allowed to settle and grow, and then subjected to either TTFields or no TTFields.
To assess the reversibility of the effect of TTFields on cancer cells, U87-MG/eGFP-fLuc cells were subjected to three conditions: (1) No TTFields exposure, standard cell culture conditions (37° C., 95% 02, 5% CO2), (2) TTFields exposure for 24 h and (3) TTFields exposure for 24 h followed by no TTFields exposure for 24 h. The readouts of BLI, PpIX fluorescence (5-ALA product) and Dextran-FITC (4 kDa) fluorescence were acquired. All experimental conditions were done in triplicate.
Briefly, cells in culture were trypsinized via standard protocols and 10,000-50,000 single cells were suspended in 200 or 75 μL of DMEM/10% FBS/1×antibiotic-antimycotic and then were seeded onto the center of a 22 mm or 12 mm diameter glass Thermanox™ coverslips respectively (ThermoFisher Scientific, Waltham, Mass., USA). The cells were incubated overnight in a humidified 95% air/5% CO2 incubator set at 37° C. Once the cells became attached to the coverslip, 2 mL or 1 mL of DMEM/10% FBS/lx antibiotic-antimycotic was added per well of 6-well or 12-well plates, respectively. […]

GBM39 cells (GBM39/Luc) = assay: Sensitivity to drug and synergy with TTFields; format: cell-based, human; conditions: for synergy of combination with TTFields: GBM39/Luc; for sensitivity of cells to various concentrations of drug: TTFields for 3 days vs no TTFields
U87-MG/GFP-Luc cells = assay: Sensitivity to drug and synergy with TTFields; format: cell-based, human
human glioblastoma cells = assay: Growth inhibition by TTFields in conjunction with compound; format: cell-based
From the text: In this figure, 5-ALA=5-aminolevulinic acid; Ethidium D=ethidium bromide; and FITC=fluorescein isothiocyanate.

U87-MG/eGFP-fLuc cells [6] = assay: Annexin-V-APC binding (apoptosis positive control), fluorescence microscopy; format: cell-based, human; conditions: 21 μM, positive control for apoptosis, TTFields-unexposed
Method: To test if the imposition of TTFields affects cell membrane properties, and thus membrane permeability, the effect of TTFields on the behavior of fluorescently tagged reagents that bind to the cellular membrane was determined. Initially, the impact of TTFields on the binding of Annexin-V-APC to the membrane of U87-MG/eGFP-fLuc cells was measured. Annexin-V-APC binding is a signature of early apoptosis which is characterized by ruffling of the membrane.

[7] = system: KR158B murine astrocytoma cell line; assay: Bioluminescence imaging of Renilla luciferase-expressing astrocytoma cells under TTFields (coelenterazine substrate); format: cell-based; conditions: TTFields exposure vs no TTFields
From the text: Renilla luciferase activity is not dependent upon ATP and magnesium (as opposed to firefly luciferase). Thus, it is believed that the induction of bioluminescence by TTFields was not due to alterations in endogenous pools of ATP.

MDA-MB-235 cells = assay: Sensitivity to drug and synergy with TTFields; format: cell-based
[8] = system: MDA-MB-435 cells, doxorubicin resistant; assay: Intracellular accumulation of doxorubicin under alternating electric fields; format: cell-based, human; conditions: 150 kHz, 1.62 V/cm, 23 h, then doxorubicin 10 μM for 1 h with field; vs no field
MES-SA cells = assay: Intracellular accumulation of doxorubicin under 150 kHz alternating electric fields; format: cell-based; conditions: 1.62 V/cm RMS, 24 h, doxorubicin 10 μM for last hour, vs untreated with field
[9] = system: MDA-MB-435 cells, wild type; assay: Intracellular accumulation of doxorubicin under alternating electric fields; format: cell-based, human; conditions: 150 kHz, 1.62 V/cm, 23 h, then doxorubicin 10 μM for 1 h with field; vs no field
[10] = system: MCF-7 human breast adenocarcinoma cells, wild type; assay: Intracellular accumulation of mitoxantrone under alternating electric fields; format: cell-based; conditions: 150 kHz, 1.62 V/cm, 23 h, then mitoxantrone 2 μM for 1 h with field; vs no field
Method: (§1) The intracellular accumulation of mitoxantrone was then measured.

[11] = system: MCF-7 cells, mitoxantrone resistant; assay: as above; format: cell-based, human; conditions: 150 kHz, 1.62 V/cm, 23 h, then mitoxantrone 2 μM for 1 h with field; vs no field
Method: as §1

[12] = target: T1, purified firefly luciferase (Photinus pyralis, UniProt P08659); assay: Activity of purified firefly luciferase exposed to TTFields; format: biochemical; conditions: 200 kHz TTFields, 60 minutes after initiation
T1 construct: purchased Sigma Aldrich Inc (St. Louis, Mo.) SRE0045-2 MG
T1 sequence (P08659 whole entry): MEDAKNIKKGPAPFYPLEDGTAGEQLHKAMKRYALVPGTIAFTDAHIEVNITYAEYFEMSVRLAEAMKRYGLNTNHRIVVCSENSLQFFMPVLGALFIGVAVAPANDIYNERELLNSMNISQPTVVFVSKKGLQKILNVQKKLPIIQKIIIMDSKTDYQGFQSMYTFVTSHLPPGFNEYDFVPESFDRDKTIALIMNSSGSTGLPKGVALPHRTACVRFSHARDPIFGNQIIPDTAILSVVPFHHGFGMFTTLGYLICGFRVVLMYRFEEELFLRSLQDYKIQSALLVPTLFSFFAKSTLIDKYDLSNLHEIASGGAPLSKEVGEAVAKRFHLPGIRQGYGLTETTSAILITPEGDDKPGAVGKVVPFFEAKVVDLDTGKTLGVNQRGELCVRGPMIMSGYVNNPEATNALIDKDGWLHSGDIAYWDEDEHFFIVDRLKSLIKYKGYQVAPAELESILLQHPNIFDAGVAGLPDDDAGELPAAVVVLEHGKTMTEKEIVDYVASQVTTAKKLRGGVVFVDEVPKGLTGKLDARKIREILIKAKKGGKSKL

[13] = TTFields for 3 days vs no TTFields

Compound: NCC(=O)CCC(=O)O [5-ALA, 5-aminolevulinic acid]
- ratio of PpIX fluorescence intensity in U87-MG cells over surrounding PCS-201 fibroblast cells ([1]; 24 h TTFields vs no TTFields, p=0.043): significantly increased
- rate of PpIX fluorescence intensity increase ([1]; TTFields-exposed vs unexposed co-cultures, 2, 6, 24 h, p<0.001): significantly augmented
- uptake of 5-ALA (PpIX fluorescence) (U87-MG cells [2]; 6 h TTFields vs no TTFields, p=0.047): significantly increased uptake
- uptake of 5-ALA (PpIX fluorescence) (U87-MG cells [2]; 24 h TTFields vs no TTFields, p=0.011): increase was maintained
- uptake (PpIX fluorescence), reversibility (U87-MG cells [2]; no TTFields vs TTFields 24 h vs TTFields 24 h followed by no TTFields 24 h, FIG. 7B): reversibly increase uptake

Compound: Cc1c2oc3c(C)c(N)cc(C(=O)N[C@@H]4C(=O)N[C@H](C(C)C)C(=O)N5CCC[C@H]5C(=O)N(C)CC(=O)N(C)[C@@H](C(C)C)C(=O)O[C@@H]4C)c3nc-2c(C(=O)N[C@@H]2C(=O)N[C@H](C(C)C)C(=O)N3CCC[C@H]3C(=O)N(C)CC(=O)N(C)[C@@H](C(C)C)C(=O)O[C@@H]2C)c(N)c1=O [7-AAD, 7-Aminoactinomycin D]
- accumulation of 7-AAD (percentage of cells with increased accumulation) (U87-MG cells [3]): significant increase
- percentage of cells with increased accumulation of 7-AAD ([4]; 7-AAD added for last 15 min while field continued): ~66%
- percentage of cells with increased accumulation of 7-AAD ([4]; fields turned off for 15 minutes before 7-AAD was added): ~20%

Compound: O=C(O)[C@H]1CSC(c2nc3ccc(O)cc3s2)=N1 [D-luciferin]
- permeation of the luciferase substrate through the plasma membrane (bioluminescence) (U87-MG/eGFP-fLuc cells [5]; TTFields exposure vs no TTFields): increased permeation
- uptake (BLI flux), reversibility (U87-MG/eGFP-fLuc cells [5]; no TTFields vs TTFields 24 h vs TTFields 24 h followed by no TTFields 24 h, FIG. 7A): reversibly increase uptake

Compound: CCc1c2c(nc3ccc(OC(=O)N4CCC(N5CCCCC5)CC4)cc13)-c1cc3c(c(=O)n1C2)COC(=O)[C@]3(O)CC [Irinotecan]
- synergy of combination with TTFields (GBM39 cells (GBM39/Luc)): synergy was found
- sensitivity of cells to various concentrations of drug (GBM39 cells (GBM39/Luc); GBM39/Luc cells): improves the sensitivity

Compound: O=NN(CCCl)C(=O)NC1CCCCC1 [Lomustine]
- sensitivity of cells to various concentrations of drug (U87-MG/GFP-Luc cells; [13]): improves the sensitivity
- sensitivity of cells to various concentrations of drug (GBM39 cells (GBM39/Luc); GBM39 cells): improves the sensitivity
- sensitivity of cells to various concentrations of drug (pcGBM2/GFP-Luc cells; [13]): improves the sensitivity

Compound: CC1=C(CO)C(=O)O[C@@H]([C@@H](C)[C@H]2CC[C@H]3[C@@H]4C[C@H]5O[C@]56[C@@H](O)C=CC(=O)[C@]6(C)[C@H]4CC[C@]23C)C1 [Withaferin A]
- synergy of combination with TTFields (U87-MG/GFP-Luc cells): synergy was found
- growth inhibition in conjunction with TTFields (human glioblastoma cells): synergistically inhibited
- synergy of combination with TTFields (GBM39 cells (GBM39/Luc)): synergy was found
- synergy of combination with TTFields (pcGBM2/GFP-Luc cells): synergy was found
- Annexin-V-APC binding to cells (early apoptosis) (U87-MG/eGFP-fLuc cells [6]): could be visualized

Compound: Oc1ccc(Cc2nc3c(Cc4ccccc4)nc(-c4ccc(O)cc4)cn3c2O)cc1 [coelenterazine]
- permeation of the luciferase substrate through the plasma membrane (bioluminescence) [7]: increased permeation

Compound: COc1cccc2c1C(=O)c1c(O)c3c(c(O)c1C2=O)C[C@@](O)(C(=O)CO)C[C@@H]3O[C@H]1C[C@H](N)[C@H](O)[C@H](C)O1 [doxorubicin]
- synergy of combination with TTFields (MDA-MB-235 cells): Evidence of synergy
- sensitivity of cells to various concentrations of drug (MDA-MB-235 cells; [13]): improves the sensitivity
- intracellular accumulation of doxorubicin [8]: increased
- increase in intracellular accumulation of doxorubicin (MES-SA cells): more than 2 ×
- intracellular accumulation of doxorubicin [9]: increased

Compound: O=C1c2c(O)ccc(O)c2C(=O)c2c(NCCNCCO)ccc(NCCNCCO)c21 [mitoxantrone]
- intracellular accumulation of mitoxantrone [10]: increased
- intracellular accumulation of mitoxantrone [11]: increased

Compound: firefly luciferase: purified firefly luciferase enzyme (Sigma Aldrich SRE0045-2 MG)
- loss in enzymatic activity [12]: > 1000 fold

Reference: patent US11103698B2, “Using alternating electric fields to increase cell membrane permeability” (The Board of Trustees of the Leland Stanford Junior …, priority 2018, dated 2021)
